The values below come from US6448251B1, “Zwitterionic-fatty acid compounds having anti-inflammatory properties” (priority 1997, dated 2002).

Data set [1] deals with erythema induced by the capsaicin. Put plainly: Protocol II dermal irritation: capsaicin-induced erythema on human forearm, infra-red reflection. Type of data set: in vivo. The following applies: 0.1% capsaicin on forearm of human volunteer; candidate applied when erythema appeared 10-15 minutes later; optical reflection at 818 nanometers measured 30 minutes later; baseline control 3.5, capsaicin only 0.5. An excerpt: A new screening method was developed to make rapid assessments on the anti-inflammatory action of the new candidates. The procedure involved the use of a natural irritant, capsaicin*, which candidate is derived from crushed hot peppers (capsicum), and measuring the amount of erythema reduction by the test candidates. Inflammatory reaction are characterzed by pain and tenderness associated with swelling and redness. Most of these clinical signs are attributed to the large influx of blood into the area. Vaso-constricting agents can reduce the amount of swelling and erythema. Hydrocortisone is, in fact, assayed by its ability to blanch the skin, which is a vasoconstrictive effect. Applying a solution of 0.1% of capsaicin to the forearm of a human volunteer will produce an erythema in less than 20 minutes, usually under five minutes. The degree of erythema is measured with an infra-red detector. An infra-red beam of light at 818 nanometers is directed into the skin over the test sie and the amount of infra-red returned to the surface by reflection indicates the amount absorbed in the skin. An untreated skin area is used as a baseline control, a capsaicin treated area is used as the negative control, and a capsaicin+hydrocortisone (a known vasoconstrictor) serves as the positive control. A positive effect means the erythema induced by the capsaicin is reduced, or is eliminated, as measured by the infra-red detector. The following reults were obtained with this evaluative protocol. The capsaicin was applied to the skin, and when erythema appeared 10-15 minutes later, the test candidate agent was applied, and the optical reflection measurements were made 30 minutes later.

For data set [2] the following is noted: intravenous injection, radiolabelled; cited from earlier work.
The test system of the next data set is inflammation. The following applies: cited from earlier work.

Like-named read-outs stand apart in the source and are kept apart here.

Consider HEPES oleate, sodium salt [Compound I], for which, in data set [1], the “Millivolts (reflection voltage)” value was 3.7 Millivolts.

For the compound `CCCCCC=CCC=CCCCCCCCC(=O)OCCN1CCN(CCS(=O)(=O)O)CC1` [Compound V, Hepes-Linoleate Ester], in data set [1], the “Millivolts (reflection voltage)” value is on record as 3.8 Millivolts.

With `O=S(=O)(O)CCN1CCN(CCO)CC1` [HEPES, 4-(2-Hydroxyethyl)-1-piperazine-ethanesulfonic acid], in data set [2], the clearance entry is “rapid clearance” and the “half-life compared with taurine” value is reported as “significantly longer half-life”. Besides, the “anti-inflammatory effects compared with taurine” value in the data set with inflammation (HEPES sodium salt and the acid, Mahon et al) is listed as “greater anti-inflammatory effects”.

`C[C@]12CCC(=O)C=C1CC[C@@H]1[C@@H]2[C@@H](O)C[C@@]2(C)[C@H]1CC[C@]2(O)C(=O)CO` [Hydrocortisone]: in data set [1], the “Millivolts (reflection voltage)” value is 5.0 Millivolts.

For `CC(=O)OCCN1CCN(CCS(=O)(=O)[O-])CC1.[Na+]` [Compound VI, Hepes-Acetate Ester], the “Millivolts (reflection voltage)” value in data set [1] is listed as 3.0 Millivolts.

As for `NCCS(=O)(=O)O` [taurine, 2-amino ethanesulfonic acid], the clearance entry in data set [2] is reported as “rapid clearance”. The figures for the anti-inflammatory activity entry in the data set with inflammation (administered centrally) and with inflammation (administered subcutaneously or interperitoneally) were “demonstrated anti-inflammatory activity” and “not”, respectively.
